Results: PMC5052702 (Nature Communications, 2016)
“And” between values parts separate entries of the source, which are not always exact repeats. Equal values may be shown once. Read-outs that look alike come from different tables or passages of the source.

Assays:
Human factor Xa = Human factor Xa (Homo sapiens, UniProt P00742); experiment: Side reactivity testing against different proteases; assay type: biochemical; settings: for IC50: 50 mM MOPS-NaOH pH 8.0 / 154 mM NaCl, 114 µM Boc-LGR-AMC as substrate; for activity against factor Xa, in words: at concentrations of 100 μM
Human factor Xa, sequence (P00742 235-488 limits assumed): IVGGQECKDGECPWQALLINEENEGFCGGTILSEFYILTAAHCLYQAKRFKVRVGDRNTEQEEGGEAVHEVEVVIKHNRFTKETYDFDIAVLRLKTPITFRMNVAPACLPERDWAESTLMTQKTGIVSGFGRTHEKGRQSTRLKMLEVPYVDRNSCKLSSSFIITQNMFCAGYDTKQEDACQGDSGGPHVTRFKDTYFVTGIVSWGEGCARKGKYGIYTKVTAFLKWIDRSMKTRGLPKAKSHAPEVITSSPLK
Human factor Xa, sequence (P00742 41-179 partner limits assumed): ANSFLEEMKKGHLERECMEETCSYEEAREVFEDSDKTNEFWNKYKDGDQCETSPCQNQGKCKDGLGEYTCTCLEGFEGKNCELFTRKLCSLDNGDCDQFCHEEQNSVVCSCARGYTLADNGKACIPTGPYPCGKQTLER
Experimental: (§1) The four enzymes cover a broad range of S1-preferences, namely for arginine/lysine (trypsin, factor Xa), hydrophobic residues (chymotrypsin) and aspartate (caspase-3).
(§2) Supplementary Table 3. Side reactivity testing of selected compounds against different
(§3) Cpd# Structure Trypsin1) Chymotrypsin2) Human factor Xa3) Human Caspase-34) […]
3) in 50 mM MOPS-NaOH pH 8.0 / 154 mM NaCl with 114 µM Boc-LGR-AMC as substrate; […]

Human Caspase-3 = target: T1, Human Caspase-3 (Homo sapiens, UniProt P42574); experiment: as above; assay type: biochemical; settings: for IC50: 50 mM HEPES-NaOH pH 7.5, 10 µM acetyl-DEVD-AMC as substrate; for activity against caspase-3, in words: at concentrations of 100 μM
T1 sequence (P42574 29-175 limits assumed): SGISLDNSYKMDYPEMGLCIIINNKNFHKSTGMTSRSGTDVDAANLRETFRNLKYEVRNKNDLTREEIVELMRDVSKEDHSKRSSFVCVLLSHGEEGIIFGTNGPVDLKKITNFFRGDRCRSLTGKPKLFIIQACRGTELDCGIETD
T1 sequence (P42574 176-277 limits assumed): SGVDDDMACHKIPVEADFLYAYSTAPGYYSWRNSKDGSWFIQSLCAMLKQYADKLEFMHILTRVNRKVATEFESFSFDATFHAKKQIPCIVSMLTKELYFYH
Experimental: as §1, §2, §3
4) in 50 mM HEPES-NaOH pH 7.5 / 100 mM NaCl / 1 mM EDTA / 0.1% (w/v) CHAPS / 10% (v/v) glycerol /2 mM DTT
with 10 µM acetyl-DEVD-AMC as substrate;

Trypsin = experiment: as above; assay type: biochemical; settings: 50 mM MOPS-NaOH pH 8.0 / 154 mM NaCl, 57 µM Boc-LGR-AMC as substrate
Experimental: as §1, §2
Cpd# Structure Trypsin1) Chymotrypsin2) Human factor Xa3) Human Caspase-34)
1) in 50 mM MOPS-NaOH pH 8.0 / 154 mM NaCl with 57 µM tert. butyloxycarbonyl (Boc)-LGR-7-amino-4-
methylcoumarin (AMC) as substrate; […]

CBV 3C protease = target: T2, CBV 3C protease (Coxsackievirus B3, UniProt P03313); experiment: In vitro proteolytic activity assay (3 h incubation); assay type: biochemical, Coxsackie virus B3; settings: fixed enzyme concentration
T2 construct: 3C protease of Coxsackie virus B3 consisting of 183 amino-acid residues; made in house; host or cells: E. coli BL21(DE3), plasmid pET-23a(+)
Experimental: (§4) A volume of 100 μl of reaction mixture containing 1.9 μM 3C protease, 25 μM substrate peptide, 5% DMSO, buffer (30 mM Tris pH 8.0, and 50 mM NaCl or 50 mM HEPES pH 7.4 and 50 mM NaCl) and (optionally) different concentrations of inhibitor was incubated in 37 °C during 3 h. The reaction was quenched by addition of 0.5% (final concentration) TFA. Samples were analysed by HPLC on SOURCE 15RPC ST 4.6/100 column using: 2–90% linear gradient of ACN in 0.1% TFA. The 3C protease activity in the absence of inhibitor was defined as 100%. The following peptides (GL Biochem, Shanghai, China) were dissolved in DMSO at a concentration of 5 mM and used for testing 3C proteases activity (Table 3).

EV-D68 3C protease = target: T3, EV-D68 3C protease (Human enterovirus D68, UniProt Q68T42); experiment: In vitro proteolytic activity assay (HPLC, 3 h incubation); assay type: biochemical; settings: for IC50: fixed enzyme concentration, 3 h incubation, read-out: IC50 HEV-D68; for reduction of protease activity: protein inhibitor stoichiometries of 1:1 and 1:3
T3 construct: a panel of six additional rhinoviral and enteroviral 3C proteases; purchased European Virus Archive
Experimental: (§5) For 12 and 14, the inhibitory activity decreased for EV-B93>PSV-1>ERBV-1>AiV-1>EV-D68>HRV-A49.
as §4

PSV-1 3C protease = PSV-1 3C protease (Porcine sapelovirus 1, UniProt Q8JJT0); experiment: as above; assay type: biochemical; settings: for IC50: fixed enzyme concentration, 3 h incubation; for reduction of protease activity: protein inhibitor stoichiometries of 1:1 and 1:3
Experimental: as §5, §4

ERBV-1 3C protease = ERBV-1 3C protease (Equine rhinitis B virus 1, UniProt Q66776); experiment: as above; assay type: biochemical; settings: for IC50: fixed enzyme concentration, 3 h incubation; for reduction of protease activity: protein inhibitor stoichiometries of 1:1 and 1:3
Experimental: as §5, §4

CVB3 3C protease = target: T4, CVB3 3C protease (Coxsackievirus B3, UniProt P03313); experiment: FRET-based enzyme activity assay (warhead activation / inhibitor kinetics); assay type: biochemical, Coxsackie virus B3; settings: for kinact/KI: relative inactivation rate, slope of kobs against inhibitor concentration
T4 construct: 3C protease of Coxsackie virus B3 consisting of 183 amino-acid residues; made in house; host or cells: E. coli BL21(DE3), plasmid pET-23a(+)
Experimental: The activity of the protease was measured by hydrolysis of the FRET-substrate N-Dabcyl-KTLEALFQ↓GPPVYE(Edans)-NH2. The peptide was purchased from Biosyntan (Berlin, Germany). Samples were irradiated with light with a wavelength of 355 nm and the emitted light at 538 nm was measured in relative fluorescence units (RFUs). An amount of 100 pmol of cleaved substrate equals 5,000 RFU.
Assay samples contained 10 μl of a 100 mM HEPES-NaOH buffer solution pH 7.5/1 mM EDTA, 10 μl enzyme solution (2 μM CVB3 3C^Pro), 10 μl of 10 μM substrate solution (both dissolved in the above buffer) and 1 μl Inhibitor and/or fragment dissolved in DMSO. For assay results of a dilution series of a mixture of 1 and 2 and comparison of reaction products in dependence of the assay solvent, see Supplementary Figs 1 and 2.
The screening procedure consisted of the following steps: 10 μl 100 mM HEPES-NaOH buffer solution pH 7.5/1 mM EDTA was placed in a cavity of the 384-well plate (polystyrene, Corning 3544). Then 10 μl of enzyme solution (40 μM CVB3 3C protease in 100 mM HEPES-NaOH buffer solution, pH 7.5/1 mM EDTA) was added and the plate was shaken for 2 min at 1,400 r.p.m. Afterwards, 0.5 μl of a DMSO solution of the electrophilic probe and 0.5 μl of a DMSO solution of the nucleophile was added, followed by 10 μl of substrate solution (10 μM in 100 mM HEPES-NaOH buffer solution, pH 7.5/1 mM EDTA). The plate was shaken again for 2 min at 1,400 r.p.m. and the generated fluorescence signal was measured with a Safire II Fluorimeter from Tecan. The electrophilic probe 1 was used at a concentration of 400 μM for the screening, which lowered the protease activity by 10–20%. Eight-hundred fifty primary amines were tested at a concentration of 320 μM and fragment 2 amplified the inhibitory activity of 1 most potently. Positive control samples contained only DMSO instead of the probe or the nucleophile. Negative control samples contained no active enzyme. An interfering fluorescent effect has not been observed.
When determining the inhibitory parameters of an inhibitor, the assay set-up was as mentioned but 1 μl DMSO solution of inhibitor was used instead of probe or nucleophile. Different concentrations of inhibitor were tested at least as duplicates and the pseudo-first-order association kinetics (kobs) were determined using GraphPad Prism. The slope of a plot of the different kobs values against the inhibitor concentration yielded kinact/KI.

Chymotrypsin = experiment: Side reactivity testing against different proteases; assay type: biochemical; settings: for IC50: 50 mM MOPS-NaOH pH 8.0 / 154 mM NaCl, 1.6 mM AF-AMC as substrate; for activity against chymotrypsin, in words: at concentrations of 100 μM
Experimental: as §1, §2, §3
2) in 50 mM MOPS-NaOH pH 8.0 / 154 mM NaCl with 1.6 mM AF-AMC as substrate. […]

HRV-A49 3C protease = HRV-A49 3C protease (Rhinovirus A49, UniProt A5GZE5); experiment: In vitro proteolytic activity assay (HPLC, 3 h incubation); assay type: biochemical, human rhinovirus A49; settings: for IC50: fixed enzyme concentration, 3 h incubation; for reduction of protease activity: protein inhibitor stoichiometries of 1:1 and 1:3
Experimental: as §5, §4

EV-B93 3C protease = EV-B93 3C protease (Enterovirus B93 (species Enterovirus B), UniProt Q5DSM6); experiment: as above; assay type: biochemical, human enterovirus B93; settings: for IC50: fixed enzyme concentration, 3 h incubation; for inhibition of the enzyme: one inhibitor equivalent; for reduction of protease activity: protein inhibitor stoichiometries of 1:1 and 1:3
Experimental: as §5, §4

AiV-1 3C protease = target: T5, AiV-1 3C protease (Aichi virus, UniProt O91464); experiment: as above; assay type: biochemical, Aichi virus 1; settings: for IC50: fixed enzyme concentration, 3 h incubation; for reduction of protease activity: protein inhibitor stoichiometries of 1:1 and 1:3
T5 construct: a panel of six additional rhinoviral and enteroviral 3C proteases; purchased European Virus Archive
Experimental: as §5, §4

SMILES: O=C(/C=C/S(=O)(=O)c1ccccc1)Nc1cc(=O)[nH]n1C1CCCCCC1 [Compound 20]
- IC50 (Human factor Xa): > 500 µM
- activity against factor Xa, in words (Human factor Xa): inactive
- IC50 (Human Caspase-3): > 300 µM
- activity against caspase-3, in words (Human Caspase-3): inactive
- IC50 (Trypsin): > 500 µM
- IC50 (CBV 3C protease): 0.4 µM
- IC50 (EV-D68 3C protease): 1 µM
- reduction of protease activity (EV-D68 3C protease): strongly reduced the activity
- IC50 (PSV-1 3C protease): 0.3 µM
- reduction of protease activity (PSV-1 3C protease): strongly reduced the activity
- IC50 (ERBV-1 3C protease): 0.5 µM
- reduction of protease activity (ERBV-1 3C protease): strongly reduced the activity
- kinact/KI (CVB3 3C protease): 1,007 M^−1 s^−1 and 1,007.7±102.2 M^−1 s^−1
- kinact/KI (CVB3 3C protease; read-out: kinact/KI): 1010 M⁻¹ s⁻¹
- IC50 (Chymotrypsin): > 500 µM
- activity against chymotrypsin, in words (Chymotrypsin): inactive
- IC50 (HRV-A49 3C protease): 0.3 µM
- reduction of protease activity (HRV-A49 3C protease): strongly reduced the activity
- IC50 (EV-B93 3C protease): 0.2 µM
- inhibition of the enzyme (EV-B93 3C protease): fully inhibited
- reduction of protease activity (EV-B93 3C protease): strongly reduced the activity
- IC50 (AiV-1 3C protease): 0.5 µM
- reduction of protease activity (AiV-1 3C protease): strongly reduced the activity

SMILES: CCOC(=O)/C=C\C(N)=O [Compound 13]
- kinact/KI (CVB3 3C protease): 34 M⁻¹ s⁻¹ and 34.7 ± 1.5 M⁻¹ s⁻¹

SMILES: CCOC(=O)/C=C/C(=O)Oc1cc(N)n(C2CCCCCC2)n1 [Compound 11]
- IC50 (CVB3 3C protease; read-out: IC50): 20.2 ± 1.6 µM

SMILES: CCNC(=O)/C=C\C(=O)Nc1cc(=O)[nH]n1C1CCCCCC1 [Compound 14]
- IC50 (Human factor Xa): > 500 µM
- activity against factor Xa, in words (Human factor Xa): inactive
- IC50 (Human Caspase-3): > 500 µM
- activity against caspase-3, in words (Human Caspase-3): inactive
- IC50 (Trypsin): > 500 µM
- IC50 (CBV 3C protease): 13 µM
- IC50 (EV-D68 3C protease): > 20 µM
- IC50 (PSV-1 3C protease): 8 µM
- IC50 (ERBV-1 3C protease): > 10 µM
- fold reduction of inactivation rate relative to ethyl ester 12 (CVB3 3C protease): 10 fold
- kinact/KI (CVB3 3C protease): 63.1 ± 3.1 M⁻¹ s⁻¹
- kinact/KI (CVB3 3C protease; read-out: kinact/KI): 63 M⁻¹ s⁻¹
- IC50 (Chymotrypsin): > 500 µM
- activity against chymotrypsin, in words (Chymotrypsin): inactive
- IC50 (HRV-A49 3C protease): > 20 µM
- IC50 (EV-B93 3C protease): 4 µM
- inhibition of the enzyme (EV-B93 3C protease): fully inhibited
- IC50 (AiV-1 3C protease): 9 µM

SMILES: CCOC(=O)/C=C/Cc1c(N)n(C2CCCCCC2)[nH]c1=O [Compound 7]
- kinact/KI (CVB3 3C protease): 0.4 M⁻¹ s⁻¹ and 0.42 ± 0.01 M⁻¹ s⁻¹

SMILES: CCOC(=O)/C=C/C(=O)c1c(N)n(C2CCCCCC2)[nH]c1=O [Compound 8]
- kinact/KI (CVB3 3C protease): 132 M⁻¹ s⁻¹ and 131.7 ± 4.2 M⁻¹ s⁻¹

SMILES: Nc1cc(=O)[nH]n1C1CCCCCC1 [Compound 2, 5-amino-1-cycloheptyl-1,2-dihydropyrazol-3-one]
- inhibition of the protease, in words (CVB3 3C protease): virtually inactive
- reduction of the enzyme's activity (inhibition) (CVB3 3C protease; fragments alone or combined at the same concentrations, ligation assay): no more than 10%

SMILES: CCOC(=O)[C@H]1O[C@@H]1Cc1c(N)n(C2CCCCCC2)[nH]c1=O [Compound 3]
- kinact/KI (CVB3 3C protease; read-out: kinact/KI): 3.7 ± 0.2 M⁻¹ s⁻¹

SMILES: CCOC(=O)/C=C\C(=O)Nc1cc(=O)[nH]n1C1CCCCCC1 [Compound 12]
- reduction of protease activity (EV-D68 3C protease): strongly reduced the activity
- reduction of protease activity (PSV-1 3C protease): strongly reduced the activity
- reduction of protease activity (ERBV-1 3C protease): strongly reduced the activity
- kinact/KI (CVB3 3C protease): 606 M⁻¹ s⁻¹ and 606.4 ± 24.9 M⁻¹ s⁻¹
- reduction of protease activity (HRV-A49 3C protease): strongly reduced the activity
- reduction of protease activity (EV-B93 3C protease): strongly reduced the activity
- reduction of protease activity (AiV-1 3C protease): strongly reduced the activity
